Assay results from US11957759B1, “Rapidly accelerated fibrosarcoma (RAF) degrading compounds and associated methods of use” (Arvinas Operations, Inc., priority 2022, dated 2024).

Tests used:
[1] = molecular target: T1, B-RAF V600E (Homo sapiens, UniProt P15056, V600E); experiment: Target protein degradation, assay A: T-Rex 293 cells, HA-B-RAF_V600E, 96 well format; type: cell-based; conditions: T-Rex 293 HA-B-RAF_V600E cells, 24 hours, Examples 1-82
T1 construct: expressed in transfected cells; host or cells: T-Rex 293 cells (Invitrogen #R71007)
T1 sequence (P15056 whole entry V600E): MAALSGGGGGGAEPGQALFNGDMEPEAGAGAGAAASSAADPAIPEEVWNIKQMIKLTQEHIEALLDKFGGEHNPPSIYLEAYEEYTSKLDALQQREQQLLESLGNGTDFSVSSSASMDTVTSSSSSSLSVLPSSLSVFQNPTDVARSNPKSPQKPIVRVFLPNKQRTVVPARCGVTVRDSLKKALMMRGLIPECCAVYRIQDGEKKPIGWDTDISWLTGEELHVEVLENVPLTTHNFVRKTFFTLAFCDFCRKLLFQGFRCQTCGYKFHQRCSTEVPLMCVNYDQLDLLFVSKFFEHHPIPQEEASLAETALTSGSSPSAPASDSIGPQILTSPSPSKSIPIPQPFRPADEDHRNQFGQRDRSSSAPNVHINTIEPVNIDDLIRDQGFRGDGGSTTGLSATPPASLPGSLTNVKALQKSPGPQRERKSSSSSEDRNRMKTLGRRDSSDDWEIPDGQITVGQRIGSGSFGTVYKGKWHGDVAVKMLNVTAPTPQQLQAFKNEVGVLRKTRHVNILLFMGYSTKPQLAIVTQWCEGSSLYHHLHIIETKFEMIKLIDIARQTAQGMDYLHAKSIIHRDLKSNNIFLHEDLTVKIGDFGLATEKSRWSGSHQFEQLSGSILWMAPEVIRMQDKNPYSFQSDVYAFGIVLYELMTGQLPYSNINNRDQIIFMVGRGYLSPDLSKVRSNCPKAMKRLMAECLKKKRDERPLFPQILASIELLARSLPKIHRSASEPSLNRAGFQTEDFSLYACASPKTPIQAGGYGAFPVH
Method: A. T-Rex 293 Cells (96 well format)
T-Rex 293 cells were purchased from Invitrogen (#R71007), and stably transfected with a pcDNA4/TO_HA-B-RAF_V600E construct, using 400 ug Zeocin for selection. V600e cells are plated in ulbecco's Modified Eagle Medium (DMEM; Gibco #11965118) containing 10% fetal bovine serum (FBS; Gibco #16000044) and 1 ng/mL doxycycline (Selleckchem #4163) at a density of 5,000 cells/well in 50 μl on poly-D-lysine (PDL) coated, black clear bottom 96-well plates (Corning #354640) and incubated for 24 hours at 37° C. with 5% CO2. The following day 50 ul of tested compound was added at 2× concentration in DMEM with a final concentration ranging from 1 μM to 0.1 nM in 0.1% dimethylsulfoxide (DMSO), and incubated for 24 hours at 37° C. with 5% CO2. At the end of the experimental treatment, the media was flicked off and cells washed once with phosphate-buffered saline (PBS)++(PBS with CaCl and MgCl) and gently replacing with 200 μl PBS++ per well. The PBS++ was removed and 50 uL 4% paraformaldehyde (PFA; EMS #15710) in PBS++ was added, and incubate at room temperature for 15 minutes. Cells were washed once with PBS++ and 50 uL 0.1% Triton X-100 (Fisher #BP151-500) in PBS++ was added. Plate was incubate for 5 minutes at room temperature. Cells were was once with PBS++. Cells were blocked with 100 uL Licor blocking buffer (Licor #927-50000) for 1 hour at room temperature. Next, 50 uL of HA antibody (CST #3724) at 1:1000 in Licor blocking buffer was added, and the plate icubate overnight at 4° C. The plates were parafilmed to prevent evaporation. Plate was washed three times with 200 uL PBS++. Fifty microliters of HCS secondary antibody solution [1:1000 Hoechst (Invitrogen #H3570), 1:1000 phalloidin (Invitrogen #A22287) and 1:5000 Alexa fluor (Invitrogen #A11008)] was added and incubated for 1 hour. Plate was wash three times with 200 uL PBS++, and imaged on a high content reader (ImageXpress Micro XLS, Molecular Devices).
(§1) The concentration of an exemplary compound that leads to half maximal degradation (DC50) as well as the maximum degradation observed (Dmax, conventionally expressed as a percentage of control) is shown below in Table 2.

[2] = molecular target: T2, B-RAF G466V (Homo sapiens, UniProt P15056, G466V); experiment: Target protein degradation, assay B: T-Rex 293 cells, HA-B-RAF_G466V, 96 well format; type: cell-based; conditions: T-Rex 293 HA-B-RAF_G466V cells, 24 hours, Examples 1-82
T2 construct: expressed in transfected cells; host or cells: T-Rex 293 cells (Invitrogen #R71007)
T2 sequence (P15056 whole entry G466V): as the sequence (P15056 whole entry V600E) above, with G466V, E600V counted along it
Method: B. T-Rex 293 Cells (96 Well Format)
T-Rex 293 cells were purchased from Invitrogen (#R71007), and stably transfected with a pcDNA4/TO_HA-B-RAF_G466V construct, using 400 ug Zeocin for selection. G466V cells are plated in ulbecco's Modified Eagle Medium (DMEM; Gibco #11965118) containing 10% fetal bovine serum (FBS; Gibco #16000044) and 0.75 ng/mL doxycycline (Selleckchem #4163) at a density of 5,000 cells/well in 50 μl on poly-D-lysine (PDL) coated, black clear bottom 96-well plates (Corning #354640) and incubated for 24 hours at 37° C. with 5% CO2. The following day 50 ul of tested compound was added at 2× concentration in DMEM with a final concentration ranging from 30 nM to 3 pM in 0.1% dimethylsulfoxide (DMSO), and incubated for 24 hours at 37° C. with 5% CO2. At the end of the experimental treatment, the media was flicked off and cells washed once with phosphate-buffered saline (PBS)++(PBS with CaCl and MgCl) and gently replacing with 200 μl PBS++ per well. The PBS++ was removed and 50 uL 4% paraformaldehyde (PFA; EMS #15710) in PBS++ was added, and incubate at room temperature for 15 minutes. Cells were washed once with PBS++ and 50 uL 0.1% Triton X-100 (Fisher #BP151-500) in PBS++ was added. Plate was incubate for 5 minutes at room temperature. Cells were was once with PBS++. Cells were blocked with 100 uL Licor blocking buffer (Licor #927-50000) for 1 hour at room temperature. Next, 50 uL of HA antibody (CST #3724) at 1:1000 in Licor blocking buffer was added, and the plate icubate overnight at 4° C. The plates were parafilmed to prevent evaporation. Plate was washed three times with 200 uL PBS++. Fifty microliters of HCS secondary antibody solution [1:1000 Hoechst (Invitrogen #H3570), 1:1000 phalloidin (Invitrogen #A22287) and 1:5000 Alexa fluor (Invitrogen #A11008)] was added and incubated for 1 hour. Plate was wash three times with 200 uL PBS++, and imaged on a high content reader (ImageXpress Micro XLS, Molecular Devices).
as §1

Row | DC50 [1] [nM] | Dmax [1] [%] | DC50 [2] [nM] | Dmax [2] [%] | SMILES
1 | 5 to 50 | 35 to 70 | 1 to 10 | 35 to 70 | N#Cc1c(NS(=O)(=O)N2CC[C@@H](F)C2)ccc(F)c1Oc1ccc2ncn(-c3ccc(N4CCN(CC5CCN(c6ccc7c(c6F)CN([C@H]6CCC(=O)NC6=O)C7=O)CC5)CC4)cc3)c(=O)c2c1 [Example 73, (3R)—N-(2-cyano-3-{[3-(4-{4-[(1-{2-[(3S)-2,6-dioxopiperidin-3-yl]-4-fluoro-1-oxo-2,3-dihydro-1H-isoindol-5-yl}piperidin-4-yl)methyl]piperazin-1-yl}phenyl)-4-oxo-3,4-dihydroquinazolin-6-yl]oxy}-4-fluorophenyl)-3-fluoropyrrolidine-1-sulfonamide]
2 | > 500 |  | > 30 |  | N#Cc1c(NS(=O)(=O)N2CC[C@@H](F)C2)ccc(F)c1Oc1ccc2ncn(-c3cnc(N4CCN(c5ccc6c(c5)C(=O)N(C5CCC(=O)NC5=O)C6=O)CC4)nc3)c(=O)c2c1 (stereo partly drawn) [Example 31, (3R)-N-(2-cyano-3-{[3-(2-{4-[2-(2,6-dioxopiperidin-3-yl)-1,3-dioxo-2,3-dihydro-1H-isoindol-5-yl]piperazin-1-yl}pyrimidin-5-yl)-4-oxo-3,4-dihydroquinazolin-6-yl]oxy}-4-fluorophenyl)-3-fluoropyrrolidine-1-sulfonamide]
3 | 50 to 500 | 35 to 70 | > 30 |  | N#Cc1c(NS(=O)(=O)N2CC[C@@H](F)C2)ccc(F)c1Oc1ccc2ncn(-c3ccc(N4CCN(C(=O)CC5(O)CCN(c6ccc(NC7CCC(=O)NC7=O)cc6F)CC5)CC4)cc3)c(=O)c2c1 (stereo partly drawn) [Example 67, (3R)-N-{2-cyano-3-[(3-(4-{4-[2-(1-{4-[(2,6-dioxopiperidin-3-yl)amino]-2-fluorophenyl}-4-hydroxypiperidin-4-yl)acetyl]piperazin-1-yl}phenyl)-4-oxo-3,4-dihydroquinazolin-6-yl]oxy}-4-fluorophenyl)-3-fluoropyrrolidine-1-sulfonamide]
4 | 50 to 500 | 35 to 70 | > 30 |  | N#Cc1c(NS(=O)(=O)N2CC[C@@H](F)C2)ccc(F)c1Oc1ccc2ncn(-c3ccc(N4CCN(C(=O)CC5(O)CCN(c6ccc(C7CCC(=O)NC7=O)cc6F)CC5)CC4)cc3)c(=O)c2c1 (stereo partly drawn) [Example 66, (3R)-N-{2-cyano-3-[(3-(4-[4-(2-{1-[4-(2,6-dioxopiperidin-3-yl)-2-fluorophenyl]-4-hydroxypiperidin-4-yl}acetyl)piperazin-1-yl]phenyl}-4-oxo-3,4-dihydroquinazolin-6-yl)oxy]-4-fluorophenyl}-3-fluoropyrrolidine-1-sulfonamide]
5 | > 500 |  | > 30 |  | N#Cc1c(NS(=O)(=O)N2CC[C@@H](F)C2)ccc(F)c1Oc1ccc2ncn(-c3ccc(N4CCN(c5ccc6c(c5)C(=O)N(C5CCC(=O)NC5=O)C6=O)CC4)cc3)c(=O)c2c1 (stereo partly drawn) [Example 71, (3R)-N-(2-cyano-3-{[3-(4-{4-[2-(2,6-dioxopiperidin-3-yl)-1,3-dioxo-2,3-dihydro-1H-isoindol-5-yl]piperazin-1-yl}phenyl)-4-oxo-3,4-dihydroquinazolin-6-yl]oxy}-4-fluorophenyl)-3-fluoropyrrolidine-1-sulfonamide]
6 | 5 to 50 | 35 to 70 | > 30 |  | N#Cc1c(NS(=O)(=O)N2CC[C@@H](F)C2)ccc(F)c1Oc1ccc2ncn(-c3ccc(N4CCN(CC5CCN(c6ccc(NC7CCC(=O)NC7=O)cc6F)CC5)CC4)nc3)c(=O)c2c1 (stereo partly drawn) [Example 12, (3R)-N-(2-cyano-3-{[3-(6-{4-[(1-{4-[(2,6-dioxopiperidin-3-yl)amino]-2-fluorophenyl}piperidin-4-yl)methyl]piperazin-1-yl}pyridin-3-yl)-4-oxo-3,4-dihydroquinazolin-6-yl]oxy}-4-fluorophenyl)-3-fluoropyrrolidine-1-sulfonamide]
7 | > 500 |  | > 30 |  | N#Cc1c(NS(=O)(=O)N2CC[C@@H](F)C2)ccc(F)c1Oc1ccc2ncn(-c3ccc(N4CCN(c5ccc6c(c5)CN(C5CCC(=O)NC5=O)C6=O)CC4)cc3)c(=O)c2c1 (stereo partly drawn) [Example 5, (3R)—N-[2-cyano-3-[3-[4-[4-[2-(2,6-dioxo-3-piperidyl)-1-oxo-isoindolin-5-yl]piperazin-1-yl]phenyl]-4-oxo-quinazolin-6-yl]oxy-4-fluoro-phenyl]-3-fluoro-pyrrolidine-1-sulfonamide]
8 | 50 to 500 | 35 to 70 | 1 to 10 | ≤ 35 | N#Cc1c(NS(=O)(=O)N2CC[C@@H](F)C2)ccc(F)c1Oc1ccc2ncn(-c3ccc(N4CCC(OC5CCN(c6ccc7c(c6)CN(C6CCC(=O)NC6=O)C7=O)CC5)CC4)cc3)c(=O)c2c1 (stereo partly drawn) [Example 82, (3R)—N-{2-cyano-3-[(3-{4-[4-({1-[2-(2,6-dioxopiperidin-3-yl)-1-oxo-2,3-dihydro-1H-isoindol-5-yl]piperidin-4-yl}oxy)piperidin-1-yl]phenyl}-4-oxo-3,4-dihydroquinazolin-6-yl)oxy]-4-fluorophenyl}-3-fluoropyrrolidine-1-sulfonamide]
9 | 50 to 500 | 35 to 70 | 1 to 10 | 35 to 70 | N#Cc1c(NS(=O)(=O)N2CC[C@@H](F)C2)ccc(F)c1Oc1ccc2ncn(-c3ccc(N4CCN(CC5CCN(c6ccc7c(c6)CN([C@H]6CCC(=O)NC6=O)C7=O)CC5)CC4)cc3)c(=O)c2c1 [Example 77, (3R)—N-(2-cyano-3-{[3-(4-{4-[(1-{2-[(3S)-2,6-dioxopiperidin-3-yl]-1-oxo-2,3-dihydro-1H-isoindol-5-yl}piperidin-4-yl)methyl]piperazin-1-yl}phenyl)-4-oxo-3,4-dihydroquinazolin-6-yl]oxy}-4-fluorophenyl)-3-fluoropyrrolidine-1-sulfonamide]
10 | 5 to 50 | 35 to 70 | 1 to 10 | 35 to 70 | N#Cc1c(NS(=O)(=O)N2CC[C@@H](F)C2)ccc(F)c1Oc1ccc2ncn(-c3ccc(N4CCN(C(=O)CC5(O)CCN(c6ccc7c(c6)CN([C@H]6CCC(=O)NC6=O)C7=O)CC5)CC4)cc3)c(=O)c2c1 [Example 4, (3R)—N-(2-cyano-3-{[3-(4-{4-[2-(1-{2-[(3S)-2,6-dioxopiperidin-3-yl]-1-oxo-2,3-dihydro-1H-isoindol-5-yl}-4-hydroxypiperidin-4-yl)acetyl]piperazin-1-yl}phenyl)-4-oxo-3,4-dihydroquinazolin-6-yl]oxy}-4-fluorophenyl)-3-fluoropyrrolidine-1-sulfonamide]
11 | > 500 |  | 10 to 30 | 35 to 70 | N#Cc1c(NS(=O)(=O)N2CC[C@@H](F)C2)ccc(F)c1Oc1ccc2ncn(-c3ccc(N4CCN(C(=O)CC5(O)CCN(c6ccc7c(c6)CN([C@H]6CCC(=O)NC6=O)C7=O)CC5)CC4)nc3)c(=O)c2c1 [Example 65, (3R)-N-(2-cyano-3-{[3-(6-{4-[2-(1-{2-[(3S)-2,6-dioxopiperidin-3-yl]-1-oxo-2,3-dihydro-1H-isoindol-5-yl}-4-hydroxypiperidin-4-yl)acetyl]piperazin-1-yl}pyridin-3-yl)-4-oxo-3,4-dihydroquinazolin-6-yl]oxy}-4-fluorophenyl)-3-fluoropyrrolidine-1-sulfonamide]
